Assays:
[1] = system: human H460 NSCLC cells; assay: Oral anti-tumor efficacy in human H460 NSCLC xenografts in mice; format: in vivo, CD1-Nu/Nu female mice; conditions: H460 xenograft; oral 100 mg/kg on day 8, 15, 22, 29; versus 5% dextrose or untreated
Description: Human H460 NSCLC cells were obtained from American Type Cell Culture (ATCC) (catalog no. HTB-177, Manassas, Va.). These cells tested negative for viral contamination using the Mouse Antibody Production (MAP) test, performed by Charles River Labs Molecular Division, upon the receipt of the tumor cells from ATCC. The tumor cells were maintained at […] in a humidified 5% CO2 atmosphere in T225 tissue culture flasks containing 50 mL of Roswell Park Memorial Institute (RPMI)-1640 solution with 10% Fetal Bovine Serum (FBS) and 2 mM L-glutamine. Cells were split at a ratio of 1:10 every 2-3 days by trypsinization and resuspended in fresh medium in a new flask. Cells were harvested for experiments in the same way at 70-90% confluency.
CD1-Nu/Nu female mice, ˜4-6 weeks old were obtained from Charles River Laboratories. Mice were housed 5 to a cage in a micro-isolator room in the Department of Animal Laboratory Research of New York State University (SUNY) at Stony Brook. Light-dark cycles were 12 h each daily, with light from 7 a.m. to 7 p.m. […]
An acclimation period of 7 days was allowed between the arrival of the animal at the study site before tumor inoculation and experimentation. […] Tumor dimensions (length and width) were measured daily before, during and after treatment (using Vernier calipers) and the tumor volume was calculated using the prolate ellipsoid formula: (length×width^2)/2. […]

[2] = system: BxPC3 pancreatic cancer cells; assay: Oral anti-tumor efficacy in human BxPC3 pancreatic cancer xenografts in mice; format: in vivo, CD-1 nude mice; conditions: BxPC3 xenograft; oral dose of 100 mg/week for 4 weeks; versus 5% dextrose or untreated
Description: An acclimation period of 7 days was allowed between the arrival of the animal at the study site before tumor inoculation and experimentation. Mice were inoculated subcutaneously (SC) in the right flank with 2×10^6 human H460 NSCLC or BxPC3 pancreatic cancer cells that were suspended in 0.1 mL of Dulbeco's Phosphate Buffered Salt (PBS) solution using a 1 cc syringe with a 27-⅝ gauge needle. Tumor dimensions (length and width) were measured daily before, during and after treatment (using Vernier calipers) and the tumor volume was calculated using the prolate ellipsoid formula: (length×width^2)/2. Treatment with test or control articles began 8 days post tumor cell implantation when the tumor was approximately 300 mm^3.
A similar study was conducted in CD-1 nude mice (n=9) inoculated with 2×10^6 BxPC-3 cells. The study was initiated when tumors reached an average size of 150 mm^3 (day 0) and CPI-613 was administered at an oral dose of 100 mg/week for 4 weeks. A comparator arm (n=9) was conducted with IP treatment at a weekly dose of 25 mg/kg.

[3] = Clinical study of CPI-613 Drug Compound with gemcitabine hydrochloride and nab-paclitaxel: tolerance; format: in vivo; conditions: 500 mg/m^2 with Gemcitabine+nab-paclitaxel on days 1 and 15, human patients
Description: Human patients suffering from locally advanced or metastatic pancreatic cancer are to be administered 6,8-bis(benzylsulfanyl)octanoic acid triethanolamine ion pair in combination with gemcitabine hydrochloride and nab-paclitaxel. Experimental procedures are described below.
[…] CPI-613 Drug Compound is 6,8-bis(benzylsulfanyl)octanoic acid triethanolamine ion pair.

Which results are given for `O=C(O)CCCCC(CCSCc1ccccc1)SCc1ccccc1` (stereo not drawn) [6,8-bis(benzylsulfanyl)octanoic acid]?
tumor growth [1]: grew much more slowly; tumor growth [2]: especially pronounced

Which tolerance of regimen [3] does the source give for `O=C(O)CCCCC(CCSCc1ccccc1)SCc1ccccc1.OCCN(CCO)CCO` (stereo not drawn) [CPI-613 Drug Compound, 6,8-bis(benzylsulfanyl)octanoic acid triethanolamine ion pair] here?
The tolerance of regimen was “excellent tolerance”.

From US11622950B2
